The values that follow are results of earlier work, collected in patent US6511683B1, “Enchinacea supplement and method of manufacture” (Factors R & D Technologies Ltd., priority 1999, dated 2003).

The test system of data set [1] is immune system. As to conditions: Awang et al.
Data set [2] has as its system granulocytes. As to conditions: Awang et al.

Molecules are shown by their SMILES.

Consider `O=C(/C=C/c1ccc(O)c(O)c1)O[C@@H](C(=O)O)[C@@H](OC(=O)/C=C/c1ccc(O)c(O)c1)C(=O)O` [cichoric acid, 2,3-o-di-caffeoyl-tartaric acid], for which the “concentration that may stimulate the immune system” value in data set [1] is no less than 0.01 ppm. Further, the phagocytosis in granulocytes entry in data set [2] was “increase”.
